Data published in the Deep4Chem optical property database.

Test: solvent given as SMILES

CCCCN1/C(=C/C=C/C2=[N+](C)c3ccccc3C2(C)C)C(C)(C)c2c1ccc1ccccc21
emission maximum (in CS(C)=O): 586 nm

CC1(C)c2ccccc2N(c2ccc(-c3nnc(-c4cc(-c5ccccc5)c(-c5ccccc5)c(-c5ccccc5)c4-c4ccccc4)o3)cc2)c2ccccc21
emission maximum (in Cc1ccccc1): 445 nm
emission maximum (in c1ccc(-n2c(-c3c(-n4c5ccccc5c5ccccc54)cccc3-n3c4ccccc4c4ccccc43)nc3ccccc32)cc1): 453 nm

CCN(CC)c1ccc2c(-c3ccccc3C(=O)O)c3c([o+]c2c1)/C(=C/c1ccc(N(C)C)cc1)CCC3
emission maximum (in ClCCl): 757 nm

Cc1cc2c(cc1C)NC(=O)CC(=O)N2
emission maximum (in CS(C)=O): 349 nm

CCCCC1C(=O)c2cc(Oc3ccc(C(C)(C)C)cc3)c3c4c(Oc5ccc(C(C)(C)C)cc5)cc5c6c(cc(Oc7ccc(C(C)(C)C)cc7)c(c7c(Oc8ccc(C(C)(C)C)cc8)cc(c2c37)C1=O)c64)C1=C(C5=O)c2ccc3ccccc3[n+]2[B-](F)(F)O1 (stereo not given)
emission maximum (in ClCCl): 655 nm

COc1ccc(-c2csc(/C(C#N)=C/c3ccc(Cl)cc3Cl)n2)cc1
emission maximum (in CC#N): 557 nm

CCOC(=O)c1ccc(C2CC(c3cccc4ccccc34)=NN2c2ccc(F)cc2)cc1 (stereo not given)
emission maximum (in ClCCl): 481 nm

CB1C=Cc2ccc3ccccc3c2N1
emission maximum (in C1CCCCC1): 373 nm

O=C([O-])c1c(Cl)c(Cl)c(Cl)c(Cl)c1-c1c2cc(I)c(=O)c(I)c-2oc2c(I)c([O-])c(I)cc12
emission maximum (in CC(C)O): 576 nm
emission maximum (in CCO): 573 nm
emission maximum (in CO): 571 nm
emission maximum (in O): 566 nm

CC(C)[Si](C#Cc1c2cc3ccccc3cc2c(C#C[Si](C(C)C)(C(C)C)C(C)C)c2nc3c(nc12)C1c2ccccc2C3c2ccccc21)(C(C)C)C(C)C
emission maximum (in CCCCCC): 548 nm

O=Cc1ccc2nc(C#Cc3ccc(N(c4ccccc4)c4ccccc4)cc3)sc2c1
emission maximum (in Cc1ccccc1): 473 nm

COc1ccccc1-c1nc2c([nH]1)C1=CC(=O)S[C@]1(C)[C@@]1(C)SC(=O)C=C21
emission maximum (in CC#N): 505 nm

CC1=[N+]2C(=C(c3ccc(N(C)C)cc3)c3ccc(C)n3[B-]2(F)F)C=C1
emission maximum (in C1CCCCC1): 518 nm
emission maximum (in C1CCOC1): 517 nm
emission maximum (in CC#N): 511 nm
emission maximum (in CC(=O)C(C)(C)C): 512 nm
emission maximum (in CC(C)=O): 515 nm
emission maximum (in CCCCCC): 519 nm
emission maximum (in CCOC(C)=O): 513 nm
emission maximum (in CO): 511 nm
emission maximum (in Cc1ccccc1): 580 nm
emission maximum (in ClC(Cl)Cl): 615 nm

CC(C)(C)c1ccc2oc3nc4oc5ccc(-n6c7ccccc7c(=O)c7ccccc76)cc5c4cc3c2c1
emission maximum (in ClC(Cl)Cl): 409 nm

CCOC(=O)c1ccccc1-c1c2ccc(=O)cc-2oc2cc(OC(=O)[C@H](CSCc3ccc(C)cc3)NC(=O)OC(C)(C)C)ccc12
emission maximum (in C1CCOC1): 518 nm
emission maximum (in CC#N): 521 nm
emission maximum (in CCO): 516 nm
emission maximum (in CS(C)=O): 549 nm

CCC1=C(C)C(=O)n2c1cc1c(C)c(CC(=O)OC)c(C)n1c2=O
emission maximum (in CO): 525 nm
emission maximum (in CS(C)=O): 500 nm
emission maximum (in ClC(Cl)Cl): 490 nm
emission maximum (in c1ccccc1): 465 nm

CC1(C)C2=[N+](CCCCCC(=O)NCCNC(=O)CCCCCN3/C(=C/C=C/C=C/C=C/2)C(C)(C)c2cc(S(=O)(=O)[O-])ccc23)c2ccc(S(=O)(=O)[O-])cc21
emission maximum (in CO): 778 nm
emission maximum (in O): 770 nm

CC(C)[Si](C#Cc1c2cc3ccccc3cc2c(C#C[Si](C(C)C)(C(C)C)C(C)C)c2nc3cc4c(cc3nc12)C1c2ccccc2C4c2ccccc21)(C(C)C)C(C)C
emission maximum (in CCCCCC): 682 nm
emission maximum (in ClCCl): 718 nm

CCCCCCCCn1c(=O)c2cc3c(C#Cc4ccc(N(c5ccccc5)c5ccccc5)cc4)c4cc5c(=O)n(CCCCCCCC)c(=O)c5cc4c(C#Cc4ccc(N(c5ccccc5)c5ccccc5)cc4)c3cc2c1=O
emission maximum (in ClC(Cl)Cl): 641 nm

CC1(C)c2ccccc2N(c2ccc(-c3ccc(C#N)c(C#N)n3)cc2)c2ccccc21
emission maximum (in Cc1ccccc1): 562 nm
emission maximum (in N#Cc1ccc2c(c1)c1ccccc1n2-c1cccc(-n2c3ccccc3c3ccccc32)c1): 550 nm

Cc1ccc2c(c1)c(C#N)c(C#N)c1cc(C)ccc12
emission maximum (in ClC(Cl)Cl): 396 nm

CCCCCCN(CCCCCC)c1ccc(C#Cc2ccc(C#N)cc2)cc1
emission maximum (in CC#N): 530 nm
emission maximum (in CO): 514 nm
emission maximum (in ClCCl): 484 nm

O=CC1=C(c2ccc(-c3cccs3)s2)CCC1
emission maximum (in C1CCOC1): 479 nm
emission maximum (in CC#N): 493 nm
emission maximum (in CCCCCC): 456 nm
emission maximum (in CCO): 514 nm
emission maximum (in OCCOCCO): 527 nm
emission maximum (in c1ccncc1): 494 nm

c1ccc(-c2ccc3c4ccc(-c5ccccc5)c5c(-c6ccccc6)ccc(c6cccc2c63)c54)cc1
emission maximum (in ClCCl): 500 nm

CN(C)c1ccc(C2=[N+]3C(=Nc4c(-c5ccc(O)cc5)cc(-c5ccc(N(C)C)cc5)n4[B-]3(F)F)C(c3ccc(O)cc3)=C2)cc1
emission maximum (in C1CCOC1): 815 nm
emission maximum (in CS(C)=O): 832 nm
emission maximum (in Cc1ccccc1): 813 nm

CCCCN1/C(=C/C=C/C2=[N+](C)c3ccccc3C2(C)C)C(C)(C)c2cc(OC)ccc21
emission maximum (in CS(C)=O): 585 nm

CCCCCc1c(C)c2c3ccccc3[nH]c2c2ccccc12
emission maximum (in ClCCl): 369 nm

C#Cn1c(-c2cc(-c3nc4ccc(C)cc4n3C#C)cc(-c3nc4ccc(C)cc4n3C#C)c2)nc2ccc(C)cc21
emission maximum (in C1CCOC1): 389.5 nm

c1cc2ccc3ccc4cc3c2cc1c1ccc2c(c1)c1cc(ccc1[C@]13OCCO[C@]21OCCO3)c1ccc2c(c1)c1cc4ccc1[C@]13OCCO[C@]21OCCO3
emission maximum (in Cc1ccccc1): 388 nm

CCCCCCCCn1nnc(-c2ccc(C#Cc3ccc(C#Cc4ccc(-c5nnn(CCCCCCCC)n5)cc4)c4nc5c6ccccc6c6ccccc6c5nc34)cc2)n1
emission maximum (in C1CCOC1): 495 nm
emission maximum (in Cc1ccccc1): 488 nm
emission maximum (in ClCCl): 502 nm

N#Cc1ncc(-c2c3ccccc3c(-c3cnc(C#N)nc3)c3ccccc23)cn1
emission maximum (in CCO): 520 nm
emission maximum (in ClCCl): 464 nm

CCN(CC)c1ccc(/C=N/C(C#N)=C(C#N)\N=C\c2ccc(N(CC)CC)cc2O)c(O)c1
emission maximum (in CC#N): 606 nm

Cc1cc(-c2nc(-c3ccccc3)nc(-c3ccccc3)n2)cc(C)c1N1c2ccccc2CCc2ccccc21
emission maximum (in Cc1ccccc1): 475.79 nm

O=C1c2cccc3cc4ccccc4c(c23)C(=O)N1Cc1ccccn1
emission maximum (in C1CCOC1): 485 nm
emission maximum (in CCCCCC): 465 nm
emission maximum (in CCO): 500 nm
emission maximum (in Cc1ccccc1): 483 nm
emission maximum (in ClCCl): 490 nm

COc1ccc(-c2nc(-c3ccc(OC)cc3)c(-c3ccc(OC)cc3)[nH]2)cc1
emission maximum (in CO): 389 nm

O=C1CC(=O)Nc2ccccc2N1
emission maximum (in CS(C)=O): 337 nm

COC(=O)[C@H](Cc1ccc2oc3c(c2c1)=CC1=C(c2ccc(OC)cc2)c2cc4c5cc(C[C@H](NC(=O)OC(C)(C)C)C(=O)OC)ccc5oc4n2[B-](F)(F)[N+]=31)NC(=O)OC(C)(C)C
emission maximum (in C1CCCCC1): 596.5 nm
emission maximum (in CCOC(C)=O): 597 nm
emission maximum (in CO): 595 nm

O=c1c2cc(F)c(O)cc2n(-c2ccccc2)c2cc(O)c(F)cc12
emission maximum (in CCO): 454 nm

CCOC(=O)c1cc(C(=O)OCC)c2cccc(OC)c2n1
emission maximum (in CCO): 526 nm

CN(C)c1ccc(C#Cc2ccccc2)cc1
emission maximum (in C1CCCCC1): 344.99 nm
emission maximum (in C1CCOC1): 386 nm
emission maximum (in C1COCCO1): 372.49 nm
emission maximum (in CC1CCCO1): 377.5 nm
emission maximum (in CC#N): 415.51 nm
emission maximum (in CC(C)=O): 410.49 nm
emission maximum (in CC(C)CC(C)(C)C): 342.99 nm
emission maximum (in CC(C)O): 365 nm
emission maximum (in CCCCCCCCCCCCCCCC): 346.98 nm
emission maximum (in CCCCCCCCCCCCCCCCCl): 360.49 nm
emission maximum (in CCOC(C)=O): 382.5 nm
emission maximum (in CCOCC): 368.5 nm
emission maximum (in CN(C)C=O): 418.5 nm
emission maximum (in CO): 372 nm
emission maximum (in CS(C)=O): 423.5 nm
emission maximum (in Cc1ccccc1): 366.01 nm

CCOC(=O)c1c(-c2cc3ccccc3oc2=O)nn(-c2cccc(F)c2)c1C(=O)OCC
emission maximum (in ClCCl): 401 nm

CC(C)(C)c1ccc2c(c1)c1cc(C(C)(C)C)ccc1n2-c1ccc(S(=O)(=O)c2ccc(-n3c4ccc(C(C)(C)C)cc4c4cc(C(C)(C)C)ccc43)nc2)cn1
emission maximum (in Cc1ccccc1): 444.37 nm
emission maximum (in O=P(c1ccccc1)(c1ccccc1)c1ccc2sc3cccc(P(=O)(c4ccccc4)c4ccccc4)c3c2c1): 467 nm

Oc1ccc2ccccc2c1/C=N/CC/N=C/c1c(O)ccc2ccccc12
emission maximum (in CC#N): 466 nm

CCOC(=O)CSc1nc(-c2ccccc2)c(C)c(C#N)c1C#N
emission maximum (in C1COCCO1): 414 nm
emission maximum (in CC#N): 426 nm
emission maximum (in CCO): 434 nm
emission maximum (in CCOC(C)=O): 421 nm
emission maximum (in ClC(Cl)Cl): 435 nm
emission maximum (in c1ccccc1): 421 nm

Cc1cc(-c2nc(-c3ccccc3)nc(-c3ccccc3)n2)ccc1N1c2ccccc2[Si](c2ccccc2)(c2ccccc2)c2ccccc21
emission maximum (in Cc1ccccc1): 459 nm
emission maximum (in O=P(c1ccccc1)(c1ccccc1)c1ccccc1Oc1ccccc1P(=O)(c1ccccc1)c1ccccc1): 460 nm

C#CCNC1=C2C=C(c3cc4n(c3)[B-](F)(F)[N+]3=CC=CC3=C4c3c(C)cc(C)cc3C)C(C)=[N+]2[B-](F)(F)n2c(C)ccc21
emission maximum (in C1CCCCC1): 633 nm
emission maximum (in CCOC(C)=O): 690 nm

COc1ccc(-c2c3ccccc3c(C#Cc3ccccc3)c3ccccc23)cc1
emission maximum (in ClCCl): 452 nm

CC[N+]1=C(/C=C/C=C/C=C/C=C2/N(CCCCCC(=O)O)c3ccccc3C2(C)C)C(C)(C)c2cc(S(=O)(=O)[O-])ccc21
emission maximum (in CO): 775 nm
emission maximum (in O): 769 nm

COc1ccc(-c2c3ccc([nH]3)c3nc(c(-c4ccc([N+](=O)[O-])cc4)c4ccc([nH]4)c4ccc([nH]4)c(-c4ccc(OC)cc4)c4ccc2o4)C=C3)cc1
emission maximum (in C1CCOC1): 761 nm
emission maximum (in Cc1ccccc1): 739 nm
emission maximum (in c1ccccc1): 739 nm

C(=C\c1ccc(-c2nnc(-c3ccc(/C=C/c4ccc(-c5nc(-c6ccccc6)c(-c6ccccc6)[nH]5)cc4)cc3)o2)cc1)/c1ccc(-c2nc(-c3ccccc3)c(-c3ccccc3)[nH]2)cc1
emission maximum (in C1CCOC1): 492 nm
emission maximum (in CC#N): 525 nm
emission maximum (in CN(C)C=O): 524 nm
emission maximum (in Cc1ccccc1): 445 nm

CC(C)(C)c1ccc(-c2c(-c3ccc(-n4c5ccccc5c5ccccc54)cc3)cc(-c3ccc(-n4c5ccccc5c5ccccc54)cc3)c(-c3ccc(C(C)(C)C)cc3)c2-c2ccc(C(C)(C)C)cc2)cc1
emission maximum (in C1CCOC1): 367 nm
